Assay [1] addresses human Melanocortin-4 receptor (MC4R) (Homo sapiens (Human), UniProt P32245). Nature of the assay: Functional in vitro MC4R antagonist potency assay (intracellular cAMP, HTRF, CHO cells). It is filed as cell-based. Particulars: cAMP after EC80 agonist stimulation (200 nM αMSH); Kb from IC50 by Leff-Dougall equation; read-out: Kb (nM) Antagonist geometric mean. The method, then: The functional in vitro antagonist potency for test compounds was determined by monitoring intracellular cyclic adenosine monophosphate (cAMP) levels in Chinese hamster ovary (CHO—) cells stably expressing the human Melanocortin-4 receptor (MC4R). Following agonist activation, human MC4R associates with the G-protein complex causing the Ga subunit to exchange bound GDP for GTP, followed by dissociation of the Gα-GTP complex. The activated Ga subunit can couple to downstream effectors to regulate the levels of second messengers or cAMP within the cell. Thereby, determination of intracellular cAMP levels allows for pharmacological characterization. Intracellular cAMP levels are quantitated using a homogenous assay utilizing the Homogeneous Time-Resolved Fluorescence (HTRF) technology from CisBio. The method is a competitive immunoassay between native cAMP produced by cells and the cAMP labelled with the acceptor dye, d2. The two entities then compete for binding to a monoclonal anti-cAMP antibody labeled with cryptate. The specific signal is inversely proportional to the concentration of cAMP in the cells.
Test compounds were solubilized to 30 mM in 100% dimethyl sulfoxide (DMSO) and stored. An 11-point dilution series using 1 in 3 162-fold serial dilutions was created in 100% DMSO with a top concentration of 800 μM. The serially diluted compound was spotted into a 384-well plate (Greiner, Cat No. 781280) at 40 nL/well with duplicate points at each concentration, and then diluted 1 in 1000 with 40 μL assay buffer containing HBSS, 20 mM HEPES (Invitrogen), 0.1% BSA, and 250 μM IBMX (Sigma Aldrich) to create an intermediate plate at 2× final assay concentration (FAC). The final compound concentration range in the assay was 400 nM to […], with a final DMSO concentration of 0.1%.
In-house generated CHO cells stably expressing the Gs-coupled human MC4R receptor were plated in 384-well assay plates (Corning, Cat No. 3570) in 50 μL/well of Ham's F-12 containing 10% heat inactivated FBS, 1× penicillin/streptomycin, 1 mM Glutamax (Invitrogen) at a density of 2,500 cells per well and incubated at 37° C. (95% O2: 5% CO2) overnight, with micro-clime lids (Labcyte, Cat No. LLS-0310). On day of assay, media was removed from the assay plate through gentle flicking and blotting plate on a paper towel and replaced with 5 μL of 2× antagonist compound in assay buffer (HBSS, 20 mM HEPES, 0.1% BSA, 250 μM IBMX) and 0.1% DMSO. Cells were incubated with compound for 30 minutes at 37° C. (95% O2: 5% CO2) before addition of 5 μL EC80 agonist stimulation (200 nM α-melanocyte stimulating hormone, αMSH, Bachem) and another 30-minute incubation at 37° C. (95% O2: 5% CO2). Intracellular cAMP levels were quantified as per Cisbio's protocol (5 μL of D2 and then 5 μL Cryptate, incubated for 1-2 hours at room temperature). Samples were measured on an Envision plate reader (PerkinElmer Life and Analytical Sciences; excitation, 320 nm; emission, 665 nm/620 nm).
Data were analyzed using the ratio of fluorescence intensity at 620 and 665 nm for each well, extrapolated from the cAMP standard curve to express data as nM cAMP for each well. Data expressed as nM cAMP were then normalized to control wells using Activity Base (IDBS). Zero percent effect (ZPE) was defined as nM of cAMP generated from EC80 agonist stimulation (200 nM αMSH). In the absence of an antagonist control compound, one hundred percent effect (HPE) was defined as nM of cAMP generated from assay buffer/vehicle only.
(In general: In TR-FRET formats the signal depends on donor and acceptor labels being close together.)

The next assay addresses hMC4R (Homo sapiens (Human), UniProt P32245). Nature of the assay: In vitro binding affinity assay using hMC4R (radioligand competition binding, CHO cell membranes). Conditions: competition with [125I]-(Nle4, D-Phe7)-α-MSH 0.5 nM; Ki from IC50 by Cheng-Prusoff; read-out: Ki (nM) geometric mean. The method, then: The binding affinity of test compounds at the α-melanocyte-stimulating hormone receptor (hMC4R) was assessed using a radioligand competition binding assay. Recombinant Chinese hamster ovaries (CHO) cells stably expressing hMC4R (PerkinElmer #ES-191-C) were used for competitive binding. hMC4R membranes were grown in Dulbecco's Modified Essential Medium and Ham's F-12 Medium (DMEM/F12), 10% heat inactivated fetal bovine serum (FBS), 0.4 mg/mL Geneticin and 2 mM L-glutamine. Cell membranes were bulked and frozen until the assay was performed.
Compounds were solubilized in 100% dimethyl sulfoxide (DMSO) to a concentration of 30 mM. A 10-point intermediate dilution series using half log dilutions was created in 100% DMSO with a top concentration of 0.03 mM. The serially diluted compounds were spotted as 1 μL/well, in 96-well Costar 3363 plates. The final compound range in the assay was 300 nM to 0.01 nM with a final DMSO concentration of 1%. Control wells, containing 1 μL of 2 mM ([…]) alpha-melanocyte stimulating hormone (α-MSH-Tocris #2584) was added to the non-specific binding wells and 1 μL 100% DMSO for the total binding control wells. This was followed by the addition of 80 μL of assay buffer [25 mM HEPES, 5 mM MgCl2, 2.5 mM CaCl2, 150 mM NaCl, Complete EDTA-free Protease Inhibitor Tablet (Thermo Scientific #11873580001) and 0.25% BSA]. […] The exact concentration of radioligand used for each experiment was determined by liquid scintillation counting and adjusted if necessary.
Frozen hMC4R cell membranes were thawed and Dounce homogenized. Homogenates were resuspended in assay buffer to a concentration of 2 μg per well. […] The plates were incubated for 2 hours at room temperature. Assay samples were then rapidly filtered through Unifilter-96 GF/B PEI coated filter plates using a filter plate harvester (PerkinElmer) and rinsed with ice-cold wash buffer [25 mM (4-(2-hydroxyethyl)-1-piperazineethanesulfonic acid (HEPES), 1 mM MgCl2, 2.5 mM CaCl2, and 500 mM NaCl]. Filter plates were dried overnight at room temperature. Plates were then bottom-sealed prior to the addition of 50 μL/well Ultima Gold XR scintillation fluid (PerkinElmer 6013111). Plates were then top-sealed, incubated for 60 minutes at room temperature and then the amount of radioactivity present was determined by liquid scintillation counting on a Microbeta Trilux (PerkinElmer #2450-0060).
The raw data (expressed as counts per minute) were analyzed using ActivityBase (IDBS Data Management Software). […] Equilibrium dissociation constant for inhibitor of ligand and receptor interaction (Ki) values were then calculated from the IC50 values using the Cheng-Prusoff equation: Ki=IC50/(1+([L]/Kd)), where [L] is the concentration of the radioligand used in the experiment and Kd is the affinity of the radioligand (determined in separate saturation experiments).
For orientation: Displacement assays read how much labelled ligand stays bound in the presence of the test substance.

Our source for the Kb and Ki values is patent US20250129048A1, “MELANOCORTIN 4 RECEPTOR ANTAGONISTS AND USES THEREOF” (Pfizer Inc., priority 2021, published 2025).

The structures appear in SMILES notation.

Chain of human Melanocortin-4 receptor (MC4R) (P32245 whole entry): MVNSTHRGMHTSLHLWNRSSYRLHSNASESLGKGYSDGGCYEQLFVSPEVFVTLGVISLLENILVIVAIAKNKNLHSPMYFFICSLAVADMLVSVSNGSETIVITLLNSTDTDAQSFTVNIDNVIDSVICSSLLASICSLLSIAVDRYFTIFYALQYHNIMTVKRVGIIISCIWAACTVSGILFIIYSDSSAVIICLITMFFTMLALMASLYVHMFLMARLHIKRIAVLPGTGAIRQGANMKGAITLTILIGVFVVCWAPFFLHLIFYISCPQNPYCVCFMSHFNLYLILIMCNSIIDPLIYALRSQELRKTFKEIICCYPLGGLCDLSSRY
Chain of hMC4R (P32245 whole entry): as above

Usually Kb stands for the affinity of an antagonist, worked out from how it opposes an agonist. As a reminder, the Ki is a dissociation constant, usually derived from enzyme kinetics or from competition with a known ligand. For the compound `COc1cc([C@@H](C)C(=O)N2CC[C@H](Nc3ccc(-c4nnn(C)n4)c(C)n3)C2)c(C)cn1` (single isomer, unassigned) [Example 26A], in assay [1], the Kb is over 150 nM. Besides, the Ki on hMC4R is over 170 nM.

Regarding `COc1cc([C@@H](C)C(=O)N2CC[C@H](Nc3ccc(-c4ncccn4)c(C)n3)C2)c(Cl)cn1` [Example 6, (2R)-2-(5-chloro-2-methoxypyridin-4-yl)-1-[(3S)-3-{[6-methyl-5-(pyrimidin-2-yl)pyridin-2-yl]amino}pyrrolidin-1-yl]propan-1-one], in assay [1], the Kb came out at 2.2 nM. Besides, the Ki on hMC4R came out at 1.1 nM.

Regarding `Cc1nc(N[C@H]2CCN(C(=O)[C@H](F)c3ccccc3)C2)ccc1-c1cn(C)cn1` (single isomer, unassigned) [Example 13B], the Kb in assay [1] amounted to 2.9 nM. In addition, on hMC4R, the Ki is 0.34 nM.

As for `COc1cc([C@@H](C)C(=O)N2CC[C@H](Nc3ccc(-c4ncccn4)c(C)n3)C2)c(C)cn1` (single isomer, unassigned) [Example 22A], the Kb in assay [1] was over 110 nM. For the same compound, the Ki at hMC4R worked out at 120 nM.

As to `COc1cc([C@@H](C)C(=O)N2CC[C@H](Nc3ccc(-c4nc(C(F)F)n(C)n4)c(C)n3)C2)ccn1` (single isomer, unassigned) [Example 33B], the Kb in assay [1] amounted to 3.3 nM. In addition, the Ki on hMC4R was 1.1 nM.

For `COc1cc(OC(F)F)cc([C@@H](C)C(=O)N2CC[C@H](Nc3ccc(-c4nc(C(C)(F)F)n(C)n4)c(C)n3)C2)c1` (single isomer, unassigned) [Example 40B], the Kb in assay [1] was found to be 7.2 nM. Moreover, at hMC4R, the Ki came out at 0.29 nM.

Turning to `COc1cc([C@@H](C)C(=O)N2CC[C@H](Nc3ccc(-c4cn(C)c(C(C)(F)F)n4)c(C)n3)C2)c(C)cn1` (single isomer, unassigned) [Example 16B], in assay [1], the Kb was determined as 2.1 nM. In addition, the Ki on hMC4R is 0.23 nM.

Turning to `COc1cc([C@@H](C)C(=O)N2CC[C@H](Nc3ccc(-c4ncccn4)c(C)n3)C2)c(C)cn1` (single isomer, unassigned) [Example 22B], the antagonist dissociation constant (Kb) in assay [1] came out at 8.1 nM. Moreover, the Ki on hMC4R stood at 2.1 nM.

Regarding `COc1cc([C@@H](C)C(=O)N2CC[C@H](Nc3ccc(-c4cn(C)c(C(F)F)n4)c(C)n3)C2)c(F)cn1` (single isomer, unassigned) [Example 38B], the Kb in assay [1] was 3.2 nM. Moreover, the Ki on hMC4R was determined as 0.31 nM.

For the compound `COc1cc([C@@H](C)C(=O)N2CC[C@H](Nc3ccc(-c4nc(C(F)F)n(C)n4)c(C)n3)C2)c(Cl)cn1` (single isomer, unassigned) [Example 24B], in assay [1], the antagonist dissociation constant (Kb) was 0.96 nM. Besides, the inhibition constant Ki on hMC4R turned out to be 0.49 nM.

In the case of `COc1cc(OC(F)F)cc([C@@H](C)C(=O)N2CC[C@H](Nc3ccc(-c4ncccn4)c(C)n3)C2)c1` (single isomer, unassigned) [Example 44A], the Kb in assay [1] is over 97 nM. Moreover, the Ki at hMC4R is over 220 nM.

With `COc1cc([C@@H](C)C(=O)N2CC[C@H](Nc3ccc(-c4cn(C)c(C(C)(F)F)n4)c(C)n3)C2)c(F)cn1` (single isomer, unassigned) [Example 21B], the antagonist equilibrium constant (Kb) in assay [1] came out at 2.6 nM. On hMC4R, the inhibition constant Ki turned out to be 0.48 nM.

`COc1cc([C@@H](C)C(=O)N2CC[C@H](Nc3ccc(-c4nc(C(F)(F)F)n(C)n4)c(C)n3)C2)c(F)cn1` [Example 2, (2R)-2-(5-fluoro-2-methoxypyridin-4-yl)-1-[(3S)-3-({6-methyl-5-[1-methyl-5-(trifluoromethyl)-1H-1,2,4-triazol-3-yl]pyridin-2-yl}amino)pyrrolidin-1-yl]propan-1-one]: the Kb in assay [1] came to 7.2 nM. Besides, the Ki on hMC4R was found to be 1.2 nM.

On to `COc1cc([C@@H](C)C(=O)N2CC[C@H](Nc3ccc(-c4nc(C(C)(F)F)n(C)n4)c(C)n3)C2)c(F)cn1` [Example 4, (2R)-1-[(3S)-3-({5-[5-(1,1-difluoroethyl)-1-methyl-1H-1,2,4-triazol-3-yl]-6-methylpyridin-2-yl}amino)pyrrolidin-1-yl]-2-(5-fluoro-2-methoxypyridin-4-yl)propan-1-one], for which the Kb in assay [1] is 9.6 nM. The Ki on hMC4R was determined as 1 nM.

For the compound `Cc1nc(N[C@H]2CCN(C(=O)Cc3cc(F)c(F)c(F)c3)C2)ccc1-c1cn(C)c(C(F)F)n1` [Example 28, 1-[(3S)-3-({5-[2-(difluoromethyl)-1-methyl-1H-imidazol-4-yl]-6-methylpyridin-2-yl}amino)pyrrolidin-1-yl]-2-(3,4,5-trifluorophenyl)ethan-1-one], the Kb in assay [1] came to 1.3 nM. Also, the Ki on hMC4R was found to be 0.25 nM.

In the case of `COc1cc([C@@H](C)C(=O)N2CC[C@H](Nc3ccc(-c4nc(C(C)(F)F)n(C)n4)c(C)n3)C2)c(Cl)cn1` (single isomer, unassigned) [Example 37B], the Kb in assay [1] was 4.1 nM. Further, the Ki at hMC4R stood at 0.53 nM.
